Experimental data taken from patent publication US8816082B2, “Heterocyclyl-pyridinyl-based biphosphonic acid, pharmaceutically acceptable salt thereof, composition thereof and method of use thereof” (The Royal Institution for the Advancement of …, priority 2010, dated 2014).
Like-named read-outs stand apart in the source and are kept apart here.

How the values were obtained:
hFPPS [1] = target: T1, hFPPS (Homo sapiens, UniProt P14324); test: hFPPS inhibition, high throughput mode at fixed concentration, more optimized assay (purer hFPPS, 10 min pre-incubation); conditions: read-out: % Inhibition at 1 μM
T1 sequence (P14324 1-419): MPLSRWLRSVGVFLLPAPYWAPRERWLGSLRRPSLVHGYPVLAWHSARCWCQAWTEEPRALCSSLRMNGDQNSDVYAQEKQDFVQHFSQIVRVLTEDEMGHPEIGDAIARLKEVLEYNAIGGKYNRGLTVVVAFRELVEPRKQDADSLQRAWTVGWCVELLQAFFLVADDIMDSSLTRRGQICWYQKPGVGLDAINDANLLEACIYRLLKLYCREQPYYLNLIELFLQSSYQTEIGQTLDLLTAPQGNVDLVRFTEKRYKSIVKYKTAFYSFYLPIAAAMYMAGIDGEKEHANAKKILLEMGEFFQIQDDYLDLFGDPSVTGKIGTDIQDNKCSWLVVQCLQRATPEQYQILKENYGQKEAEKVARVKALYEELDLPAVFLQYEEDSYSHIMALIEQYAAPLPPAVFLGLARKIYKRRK

[2] = system: breast cancer MCF-7 cells; test: Anti-proliferation assay (MTT), breast cancer MCF-7 cells; format: cell-based; conditions: Homo sapiens, MCF7, read-out: % inhibition of breast cancer MCF-7 cell proliferation at 50 μM inhibitor, 24 h, vs vehicle control, averages of four determinations
Protocol: (§1) In addition, select compounds were tested in anti-proliferation assays using multiple myeloma JJN3 cells and breast cancer MCF-7 cells. Cells were cultured with either an hFPPS inhibitor (i.e. representative Examples 1 to 42) at increasing concentrations (from 10 nM to 100 μM) or a vehicle control.

[3] = system: multiple myeloma JJN3 cells; test: Anti-proliferation assay (MTT), multiple myeloma JJN3 cells; format: cell-based; conditions: Homo sapiens
Protocol: as §1

hFPPS [4] = target: T1, hFPPS; test: hFPPS IC50 determination under more optimised conditions (Table 4)
[5] = target: T2, human farnesyl pyrophosphate synthase (hFPPS) (Homo sapiens, UniProt P14324); test: In vitro enzymatic inhibition assay for hFPPS, initial screening conditions (partly purified enzyme, 5 min pre-incubation); format: biochemical
T2 sequence (P14324 1-419): T1 sequence (P14324 1-419)

[6] = system: NCI-H460 cells (lung large cell carcinoma); test: Cell growth inhibition assay (MTT), NCI-H460 cells; format: cell-based; conditions: Homo sapiens, 96 h, 4 days, preliminary data, read-out: EC50 (inhibition of cell proliferation)
[7] = JJN-3, read-out: % inhibition of MM JJN3 cell proliferation at 50 μM inhibitor, 24 h, vs vehicle control, averages of four determinations
[8] = JJN-3, read-out: % inhibition of MM JJN3 cell proliferation at 50 μM inhibitor, 48 h, vs vehicle control, averages of four determinations

## O=P(O)(O)C(Nc1cccc(-c2ccccc2)n1)P(=O)(O)O [Compound 12]
hFPPS [1]
  inhibition at 1 µM: 35%

## O=P(O)(O)C(Nc1ncccc1Br)P(=O)(O)O [Compound 36]
[2]
  inhibition at 50 µM: 25%
[3]; [7]
  inhibition at 50 µM: 15%
[3]; [8]
  inhibition at 50 µM: 26%
hFPPS [4]
  IC50: 180 nM

## O=P(O)(O)C(Nc1cc(-c2ccc3ccccc3c2)ccn1)P(=O)(O)O [Compound 26]
hFPPS [1]
  inhibition at 1 µM: 65%

## O=P(O)(O)C(Nc1cc(-c2ccc(Cl)cc2)ccn1)P(=O)(O)O [Compound 40]
hFPPS [1]
  inhibition at 1 µM: 90%

## O=P(O)(O)C(Nc1cc(-c2ccc3[nH]ncc3c2)ccn1)P(=O)(O)O [Compound 14]
hFPPS [1]
  inhibition at 1 µM: 45%

## O=P(O)(O)C(F)(Cc1cncc(-c2ccc3[nH]ncc3c2)c1)P(=O)(O)O [Compound 7]
[2]
  inhibition at 50 µM: 20%
[3]; [7]
  inhibition at 50 µM: 28%
[3]; [8]
  inhibition at 50 µM: 19%
hFPPS [4]
  IC50: 150 nM
[5]
  IC50: 640 nM

## O=P(O)(O)C(Nc1cc(-c2ccc(F)cc2)ccn1)P(=O)(O)O [Compound 42]
hFPPS [1]
  inhibition at 1 µM: 95%

## O=P(O)(O)C(O)(Cc1cccnc1)P(=O)(O)O [Risedronate, reference compound]
[2]
  inhibition at 50 µM: 16%
[6]
  EC50: 80000 to 100000 nM
[3]; [7]
  inhibition at 50 µM: 9%
[3]; [8]
  inhibition at 50 µM: 17%
